According to patent US10457672B2, “γ-diketones as Wnt/β-catenin signaling pathway activators” (Samumed, LLC, priority 2013, dated 2019):

System: Wnt/β-catenin signaling pathway (Wnt-responsive SP5 promoter luciferase reporter in SW480 cells)
Test: Wnt reporter (SP5 promoter-firefly luciferase) activation assay in SW480 cells
Format: cell-based
Conditions: Homo sapiens; SW480 colon cancer cells with SP5 promoter luciferase reporter; 24 h after compound addition; normalized to DMSO; concentration at half maximal activation
Protocol: Compounds that enhance the Wnt activity, or Activators, were assayed as follows. Reporter cell lines were generated by stably transducing cells of colon cancer cell lines (with a lentiviral construct that included a Wnt-responsive promoter driving expression of the firefly luciferase gene).
Lentiviral constructs were made in which the SP5 promoter, a promoter having eight TCF/LEF binding sites derived from the SP5 promoter, was linked upstream of the firefly luciferase gene. The lentiviral constructs also included a hygromycin resistance gene as a selectable marker. The SP5 promoter construct was used to transduce SW480 cells, a colon cancer cell line having a mutated APC gene that generates a truncated APC protein, leading to de-regulated accumulation of β-catenin.
Cultured SW480 cells bearing a reporter construct were distributed at approximately 10,000 cells per well into 384- or 96-well multiwell plates. Compounds from a small molecule compound library were then added to the wells in half-log dilutions using a maximum concentration of three or ten micromolar. A series of control wells for each cell type received only buffer and compound solvent DMSO. Twenty-four hours after the addition of compound, reporter activity for luciferase was assayed, for example, by addition of the BrightGlo luminescence reagent (Promega) and the Victor3 plate reader (Perkin Elmer). Readings were normalized to DMSO only treated cells, and any activities above DMSO were considered activation. Compounds were considered activators if reporter activities were 2× fold or greater than DMSO. EC50 is the concentration at half maximal activation.

O=C(CCC(=O)c1cc2c(c(O)c1O)OCCO2)c1ccccc1 [Compound 4, 1-(7,8-dihydroxy-2,3-dihydrobenzo[b][1,4]dioxin-6-yl)-4-phenylbutane-1,4-dione] and O=C(CCC(=O)c1cccc2c1OCCO2)c1ccccc1 [Compound 248, 1-(2,3-Dihydrobenzo[b][1,4]dioxin-5-yl)-4-phenylbutane-1,4-dione] cannot be ordered by EC50: greater than 10000 nM for the first, greater than 10000 nM for the second.

Going from O=C(CCC(=O)c1ccc2c(c1)OCCO2)c1cccc(C(F)(F)F)c1 [Compound 9, 1-(2,3-Dihydrobenzo[b][1,4]dioxin-6-yl)-4-(3-(trifluoromethyl)phenyl)butane-1,4-dione] to O=C(CCC(=O)c1ccc2c(c1)OCCO2)c1ccc(C(F)(F)F)cc1 [Compound 10, 1-(2,3-Dihydrobenzo[b][1,4]dioxin-6-yl)-4-(4-(trifluoromethyl)phenyl)butane-1,4-dione], the EC50 rises from 100 nM to greater than 10000 nM.

O=C(CCC(=O)c1ccc2c(c1)OCCO2)c1cccc(F)c1 [Compound 11, 1-(2,3-Dihydrobenzo[b][1,4]dioxin-6-yl)-4-(3-fluorophenyl)butane-1,4-dione] and O=C(CCC(=O)c1ccc2c(c1)OCO2)c1cccc(F)c1 [Compound 214, 1-(Benzo[d][1,3]dioxol-5-yl)-4-(3-fluorophenyl)butane-1,4-dione] are within 1.5-fold of each other in EC50: 13 nM for the first, 10 nM for the second.

Compared with COc1ccccc1C(=O)CCC(=O)c1ccc2c(c1)OCCO2 [Compound 12, 1-(2,3-Dihydrobenzo[b][1,4]dioxin-6-yl)-4-(2-methoxyphenyl)butane-1,4-dione], COc1ccccc1C(=O)CCC(=O)c1ccc2c(c1)OCO2 [Compound 216, 1-(Benzo[d][1,3]dioxol-5-yl)-4-(2-methoxyphenyl)butane-1,4-dione] is 2.2-fold higher in EC50: 5 nM for the first, 11 nM for the second.

Going from COc1cccc(C(=O)CCC(=O)c2ccc3c(c2)OCCO3)c1 [Compound 13, 1-(2,3-Dihydrobenzo[b][1,4]dioxin-6-yl)-4-(3-methoxyphenyl)butane-1,4-dione] to COc1cccc(C(=O)CCC(=O)c2ccc3c(c2)OCO3)c1 [Compound 217, 1-(Benzo[d][1,3]dioxol-5-yl)-4-(3-methoxyphenyl)butane-1,4-dione], the EC50 rises from 192 nM to 343 nM (1.8-fold).

Compared with O=C(CCC(=O)c1ccc2c(c1)OCCO2)c1cccnc1 [Compound 14, 1-(2,3-dihydrobenzo[b][1,4]dioxin-6-yl)-4-(pyridin-3-yl)butane-1,4-dione], O=C(CCC(=O)c1ccc2c(c1)OCCO2)c1ccncc1 [Compound 15, 1-(2,3-Dihydrobenzo[b][1,4]dioxin-6-yl)-4-(pyridin-4-yl)butane-1,4-dione] is 3.4-fold lower in EC50: 306 nM for the first, 90 nM for the second. The second is the more potent here.

First: O=C(CCC(=O)c1ccccc1C(F)(F)F)c1ccc2c(c1)SCCO2 [Compound 16, 1-(2,3-Dihydrobenzo[b][1,4]oxathiin-6-yl)-4-(2-(trifluoromethyl)phenyl)butane-1,4-dione]
Second: O=C(CCC(=O)c1ccccc1F)c1ccc2c(c1)SCCO2 [Compound 19, 1-(2,3-Dihydrobenzo[b][1,4]oxathiin-6-yl)-4-(2-fluorophenyl)butane-1,4-dione]
The EC50 of the first is 2.3-fold higher: 7 nM for the first, 3 nM for the second.

First: O=C(CCC(=O)c1ccc2c(c1)SCCO2)c1ccc(C(F)(F)F)cc1 [Compound 18, 1-(2,3-Dihydrobenzo[b][1,4]oxathiin-6-yl)-4-(4-(trifluoromethyl)phenyl)butane-1,4-dione]
Second: O=C(CCC(=O)c1ccc2c(c1)SCCO2)c1ccc(F)cc1 [Compound 21, 1-(2,3-Dihydrobenzo[b][1,4]oxathiin-6-yl)-4-(4-fluorophenyl)butane-1,4-dione]
The EC50 of the first is higher: greater than 10000 nM for the first, 31 nM for the second. The second is the more potent here.

O=C(CCC(=O)c1ccc2c(c1)SCCO2)c1ccccc1 [Compound 28, 1-(2,3-Dihydrobenzo[b][1,4]oxathiin-6-yl)-4-phenylbutane-1,4-dione] and O=C(CCC(=O)c1ccc2c(c1)CCCO2)c1ccccc1 [Compound 80, 1-(Chroman-6-yl)-4-phenylbutane-1,4-dione] are within 1.5-fold of each other in EC50: 9 nM for the first, 10 nM for the second.

Compared with COc1ccccc1C(=O)CCC(=O)c1ccc2c(c1)OCCC2 [Compound 61, 1-(Chroman-7-yl)-4-(2-methoxyphenyl)butane-1,4-dione], O=C(CCC(=O)c1ccccc1F)c1ccc2c(c1)CCCO2 [Compound 71, 1-(Chroman-6-yl)-4-(2-fluorophenyl)butane-1,4-dione] is 10-fold lower in EC50: 25 nM for the first, 2.5 nM for the second. The second is the more potent here.

Compared with O=C(CCC(=O)c1ccccc1C(F)(F)F)c1ccc2c(c1)CCCO2 [Compound 68, 1-(Chroman-6-yl)-4-(2-(trifluoromethyl)phenyl)butane-1,4-dione], O=C(CCC(=O)c1ccc2c(c1)CCCO2)c1cccc(C(F)(F)F)c1 [Compound 69, 1-(Chroman-6-yl)-4-(3-(trifluoromethyl)phenyl)butane-1,4-dione] is higher in EC50: 6 nM for the first, greater than 10000 nM for the second. The first is the more potent here.

Going from COc1ccc(C(=O)CCC(=O)c2ccc3c(c2)CCCO3)cc1 [Compound 76, 1-(Chroman-6-yl)-4-(4-methoxyphenyl)butane-1,4-dione] to O=C(CCC(=O)c1ccc2c(c1)OCO2)c1ccccc1 [Compound 222, 1-(Benzo[d][1,3]dioxol-5-yl)-4-phenylbutane-1,4-dione], the EC50 falls from greater than 10000 nM to 3 nM. The second is the more potent here.

COc1ccc(C(=O)CCC(=O)c2ccccn2)cc1OC [Compound 207, 1-(3,4-Dimethoxyphenyl)-4-(pyridin-2-yl)butane-1,4-dione] and COc1ccc(C(=O)CCC(=O)c2cccnc2)cc1OC [Compound 208, 1-(3,4-Dimethoxyphenyl)-4-(pyridin-3-yl)butane-1,4-dione] cannot be ordered by EC50: greater than 10000 nM for the first, greater than 10000 nM for the second.

Compared with COc1ccc(C(=O)CCC(=O)c2ccncc2)cc1OC [Compound 209, 1-(3,4-Dimethoxyphenyl)-4-(pyridin-4-yl)butane-1,4-dione], O=C(CCC(=O)c1ccc2c(c1)OC(F)(F)O2)c1ccccc1 [Compound 235, 1-(2,2-Difluorobenzo[d][1,3]dioxol-5-yl)-4-phenylbutane-1,4-dione] is lower in EC50: greater than 10000 nM for the first, 494 nM for the second.

Going from O=C(CCC(=O)c1ccccc1C(F)(F)F)c1ccc2c(c1)OCO2 [Compound 210, 1-(Benzo[d][1,3]dioxol-5-yl)-4-(2-(trifluoromethyl)phenyl)butane-1,4-dione] to O=C(CCC(=O)c1ccccc1F)c1ccc2c(c1)OCO2 [Compound 213, 1-(Benzo[d][1,3]dioxol-5-yl)-4-(2-fluorophenyl)butane-1,4-dione], the EC50 rises from 2 nM to 18 nM (9-fold).

First: O=C(CCC(=O)c1ccccn1)c1ccc2c(c1)OC(F)(F)O2 [Compound 232, 1-(2,2-Difluorobenzo[d][1,3]dioxol-5-yl)-4-(pyridin-2-yl)butane-1,4-dione]
Second: O=C(CCC(=O)c1cccc2c1OCCO2)c1cccc(F)c1 [Compound 240, 1-(2,3-Dihydrobenzo[b][1,4]dioxin-5-yl)-4-(3-fluorophenyl)butane-1,4-dione]
The EC50 of the first is 5-fold lower: 134 nM for the first, 669 nM for the second. The first is the more potent here.

First: O=C(CCC(=O)c1cccc2c1OCCO2)c1ccc(C(F)(F)F)cc1 [Compound 238, 1-(2,3-Dihydrobenzo[b][1,4]dioxin-5-yl)-4-(4-(trifluoromethyl)phenyl)butane-1,4-dione]
Second: COc1ccccc1C(=O)CCC(=O)c1cccc2c1OCCO2 [Compound 242, 1-(2,3-Dihydrobenzo[b][1,4]dioxin-5-yl)-4-(2-methoxyphenyl)butane-1,4-dione]
The EC50 of the first is higher: greater than 10000 nM for the first, 789 nM for the second.

Same assay, conditions: SW480 colon cancer cells with SP5 promoter luciferase reporter; 24 h after compound addition; normalized to DMSO; concentration at half maximal activation

For O=C(CC(=O)c1cc(O)c2c(c1O)OCCO2)c1ccccc1 [Compound 3, 1-(5,8-dihydroxy-2,3-dihydrobenzo[b][1,4]dioxin-6-yl)-3-phenylpropane-1,3-dione], the EC50 was greater than 10000 nM.
